The record followed here is patent US20250263426A1, “PDE4B INHIBITOR AND USE THEREOF” (Xizang Haisco Pharmaceutical Co., Ltd., priority 2022, published 2025).

Where two headings read alike, the source gives them in different places.

Series [1] deals with human peripheral blood mononuclear cells (TNF-α release). As to the kind of experiment: Inhibition of LPS-induced TNF-α release from human peripheral blood mononuclear cells in vitro. It is filed as cell-based. The note with it: 4 h; for IC50: read-out: Re IC50; for Emax: read-out: Max inhibition (%). The protocol: 5. Detection of Inhibitory Activity of Compounds on the Release of Tumor Necrosis Factor-α (TNF-α) from Human Peripheral Blood Mononuclear Cells Induced by Lipopolysaccharide (LPS) In Vitro
The concentration of hPBMC cells was adjusted to 0.25×10^6 cells/mL with RPMI1640 medium and inoculated into a 96-well plate in an amount of 50000 cells per well. […] Incubation was carried out for 4 h in an incubator at 37° C. and 5% CO2. The cell supernatant was collected, and the content of TNF-α in the supernatant sample was detected by human TNF-α Elisa quantitative test kit (Sino Biological, Cat #KIT10602). The IC50 value was calculated using GraphPad Prism software.

Series [2] can be described thus: Pharmacokinetic test in beagle dogs. Format: in vivo. The note with it: for half-life: read-out: T½ (converted). The protocol: 8.1 Experimental animals: Male beagle dogs, about 8-11 kg, 6 beagle dogs/compound, purchased from Beijing Marshall Biotechnology Co., Ltd.
8.2 Experimental method: On the day of the experiment, 6 beagle dogs were randomly grouped according to their body weights. The animals were fasted with water available for 12 to 14 h one day before the administration and were fed 4 h after the administration. Administration was carried out according to Table 10.

A short description of series [3]: Pharmacokinetic test in mice. Format: in vivo, ICR mice. The note with it: for half-life: read-out: T½ (converted). The protocol: 6.1 Experimental animals: Male ICR mice, 20-25 g, 6 mice/compound, purchased from Chengdu Ddossy Experimental Animals Co., Ltd.
6.2 Experiment design: On the day of the experiment, 6 ICR mice were randomly grouped according to their body weights. The animals were fasted with water available for 12 to 14 h one day before the administration and were fed 4 h after the administration.

In the next series the target is PDE4D2 (Homo sapiens (Human), UniProt Q08499). The series is described as follows: Effect of compounds on PDE4D2 activity (fluorescence polarization kit). It is filed as biochemical. The protocol:
FP was usually represented by mP value.
[formula] • I∥ (S520): fluorescence intensity in parallel direction • I⊥ (P520): fluorescence intensity in perpendicular direction • G: G factor=1
[formula] • mP(sample): mP of the test compound in a reaction well • mP(negative control): mP in the negative control well • mP(positive control): mP in the positive control well
According to the calculated inhibition rate at each concentration, the IC50 value of each compound was calculated by GraphPad Prism 8 software.
A general note: Polarisation of emitted light reports the rotation of a fluorescent probe.

The target of a further series is PDE4B2 (Homo sapiens (Human), UniProt Q07343). The series is described as follows: Effect of compounds on PDE4B2 activity (fluorescence polarization kit).
Setting [4] is: Homo sapiens, PBMC, hPBMC, 100 ng/mL LPS.
Where [5] appears, read: male, iv, beagle dog plasma, i.v. 1 mg/kg.
Where [6] appears, read: male, po, beagle dog plasma, i.g. 3 mg/kg.
Where [7] appears, read: male, ICR, iv, mouse plasma, i.v. 2.5 mg/kg.
Setting [8] is: male, ICR, po, mouse plasma, i.g. 10 mg/kg.
The mark [9] stands for this setting: relative IC50, hPBMC, 100 ng/mL LPS.

The IC50 is the concentration that gives 50% inhibition. A word on the AUC(0-t): it is exposure summed from dosing to a finite time, without extrapolation to infinity. As a reminder, the clearance is the rate of elimination divided by the concentration. A high value points to a high capacity for elimination.

Chain of PDE4D2 (Q08499 303-809, change not shown): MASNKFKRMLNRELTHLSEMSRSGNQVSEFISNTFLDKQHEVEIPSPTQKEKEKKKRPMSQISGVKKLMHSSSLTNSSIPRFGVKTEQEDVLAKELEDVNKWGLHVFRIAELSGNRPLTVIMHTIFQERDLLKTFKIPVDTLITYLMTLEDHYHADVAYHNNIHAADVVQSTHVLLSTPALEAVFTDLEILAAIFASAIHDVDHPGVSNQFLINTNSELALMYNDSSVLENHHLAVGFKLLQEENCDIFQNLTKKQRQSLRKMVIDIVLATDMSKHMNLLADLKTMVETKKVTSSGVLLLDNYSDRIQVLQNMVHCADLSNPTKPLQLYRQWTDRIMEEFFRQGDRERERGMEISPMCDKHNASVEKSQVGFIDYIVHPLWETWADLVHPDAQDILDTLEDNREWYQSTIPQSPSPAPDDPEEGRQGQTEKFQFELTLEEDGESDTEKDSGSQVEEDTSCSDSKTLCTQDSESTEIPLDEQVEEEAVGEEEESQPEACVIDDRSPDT
Chain of PDE4B2 (Q07343 other isoform, or with tags, fused parts or gaps): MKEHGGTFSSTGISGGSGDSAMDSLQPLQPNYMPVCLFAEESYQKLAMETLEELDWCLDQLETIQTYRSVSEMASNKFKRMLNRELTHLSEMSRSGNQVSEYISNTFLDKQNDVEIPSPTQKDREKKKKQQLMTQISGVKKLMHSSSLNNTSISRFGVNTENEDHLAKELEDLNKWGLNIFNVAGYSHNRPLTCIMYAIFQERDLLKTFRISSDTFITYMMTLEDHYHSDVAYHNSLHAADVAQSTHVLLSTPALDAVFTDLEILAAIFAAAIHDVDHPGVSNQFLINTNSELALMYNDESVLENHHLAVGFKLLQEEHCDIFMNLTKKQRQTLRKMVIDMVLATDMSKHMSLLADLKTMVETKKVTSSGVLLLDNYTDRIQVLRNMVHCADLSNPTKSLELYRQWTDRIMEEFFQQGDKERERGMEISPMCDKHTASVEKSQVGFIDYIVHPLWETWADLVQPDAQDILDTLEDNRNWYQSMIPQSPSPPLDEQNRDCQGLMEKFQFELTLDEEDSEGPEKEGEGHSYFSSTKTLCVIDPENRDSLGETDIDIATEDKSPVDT
Excerpt for PDE4B2: [formula] • I∥ (S535): fluorescence intensity in parallel direction • I⊥ (P535): fluorescence intensity in perpendicular direction • G: G factor=1

On to `CC(C)(COC(N)=O)Nc1nc(N2CC=C(c3ncc(Cl)cn3)CC2)nc2c1[S@+]([O-])CC2` [Compound 51], for which the IC50 in series [1] (Homo sapiens, PBMC) is under 10 nM; against PDE4D2 it was under 10 nM; at PDE4B2, under 10 nM. Further, in series [1] (setting [4]), the Emax was 69%. The F in series [2] (beagle dog, i.g. 3 mg/kg) is 74.9 ± 11%; in series [3] (mouse, i.g. 10 mg/kg), over 98%. Further, the AUC(0-t) is 4990 ± 239 ng·h/mL in series [2] (setting [5]), 11200 ± 1710 ng·h/mL in series [2] (setting [6]), 5420 ± 926 ng·h/mL in series [3] (setting [7]) and 30100 ± 5360 ng·h/mL in series [3] (setting [8]). Also, the clearance amounted to 3.06 ± 0.18 mL/min/kg in series [2] (setting [5]) and 7.81 ± 1.4 mL/min/kg in series [3] (setting [7]). Also, the half-life in series [2] (setting [5]) is 12.8 ± 3.8 h; in series [2] (setting [6]), 16.1 ± 5.5 h; in series [3] (setting [7]), 2.82 ± 0.23 h; in series [3] (setting [8]), 3.33 ± 0.58 h. Besides, the Vd in series [2] (male, iv, beagle dog plasma, i.v. 1 mg/kg, read-out: Vdss) turned out to be 3.08 ± 0.61 L/kg; in series [3] (male, ICR, iv, mouse plasma, i.v. 2.5 mg/kg, read-out: Vdss), 1.29 ± 0.039 L/kg.

For `COC(=O)NCC(C)(C)Nc1nc(N2CC=C(c3ncc(Cl)cn3)CC2)nc2c1[S@+]([O-])CC2` [Compound 88], the “Max inhibition (%)” value in series [1] (hPBMC, 100 ng/mL LPS) is given as 74.9%. In addition, the IC50 (in series [1] (setting [9]); at PDE4D2; on PDE4B2 (read-out: PDE4B2 IC50)) was under 10 nM in each case.

`CNC(=O)OCC1(Nc2nc(N3CC=C(c4ncc(C5CC5)cn4)CC3)nc3c2[S@+]([O-])CC3)CCC1` [Compound 90]: the half-maximal inhibitory concentration (IC50) in series [1] (Homo sapiens, PBMC) lay within 10 to 50 nM; against PDE4D2 it was 10 to 50 nM; against PDE4B2 it was 10 to 50 nM. Besides, the Emax in series [1] (setting [4]) amounted to 69.5%.

For the molecule `C#Cc1ccc(C2=CCN(c3nc4c(c(NC5([C@H](C)O)CCC5)n3)[S@+]([O-])CC4)CC2)nc1` [Compound 95-2], the “Max inhibition (%)” value in series [1] (hPBMC, 100 ng/mL LPS) is on record as 70.67%. Besides, the IC50 (in series [1] (setting [9]); at PDE4D2; at PDE4B2 (read-out: PDE4B2 IC50)) was under 10 nM throughout.

On to `C#Cc1ccc(C2=CCN(c3nc4c(c(NC5([C@@H](C)O)CCC5)n3)[S@@+]([O-])CC4)CC2)nc1` [Compound 95-3], for which, in series [1] (hPBMC, 100 ng/mL LPS), the “Max inhibition (%)” value is on record as 81.97%. Further, the IC50 (in series [1] (setting [9]); on PDE4D2; on PDE4B2 (read-out: PDE4B2 IC50)) was under 10 nM each time.

Consider `C#Cc1cnc(C2=CCN(c3nc4c(c(NC5([C@@H](C)O)CCC5)n3)[S@+]([O-])CC4)CC2)nc1` [Compound 96-1], for which the “Max inhibition (%)” value in series [1] (hPBMC, 100 ng/mL LPS) is 72.83%. In addition, the IC50 is under 10 nM in series [1] (setting [9]), 10 to 50 nM against PDE4D2 and under 10 nM on PDE4B2 (read-out: PDE4B2 IC50).

Regarding `C#Cc1cnc(C2=CCN(c3nc4c(c(NC5([C@H](C)O)CCC5)n3)[S@+]([O-])CC4)CC2)nc1` [Compound 96-2], the “Max inhibition (%)” value in series [1] (hPBMC, 100 ng/mL LPS) stood at 81.63%. The IC50 (in series [1] (setting [9]); on PDE4D2; on PDE4B2 (read-out: PDE4B2 IC50)) was under 10 nM in each case.

With `C#Cc1cnc(C2=CCN(c3nc4c(c(NC5([C@H](C)O)CCC5)n3)[S@@+]([O-])CC4)CC2)nc1` [Compound 96-4], the “Max inhibition (%)” value in series [1] (hPBMC, 100 ng/mL LPS) was 70.23%. In addition, the IC50 (in series [1] (setting [9]); against PDE4D2; on PDE4B2 (read-out: PDE4B2 IC50)) was 10 to 50 nM throughout.

With `CC#Cc1ccc(C2=CCN(c3nc4c(c(NC5(COC(N)=O)CCC5)n3)[S@+]([O-])CC4)CC2)nc1` [Compound 98], the IC50 in series [1] (Homo sapiens, PBMC) is under 10 nM; at PDE4D2, under 10 nM; on PDE4B2 it was under 10 nM. Moreover, the Emax in series [1] (setting [4]) was 72.7%.

For the molecule `CC#Cc1ccc(C2=CCN(c3nc4c(c(NC5(CNC(=O)OC)CCC5)n3)[S@+]([O-])CC4)CC2)nc1` [Compound 100], the concentration for half-maximal inhibition (IC50) in series [1] (Homo sapiens, PBMC) is under 10 nM; against PDE4D2 it was under 10 nM; at PDE4B2, under 10 nM. The Emax in series [1] (setting [4]) was found to be 79.2%.

As for `CC#Cc1ccc(C2=CCN(c3nc4c(c(NC(C)(C)COC(N)=O)n3)[S@+]([O-])CC4)CC2)nc1` [Compound 101], the IC50 was under 10 nM in series [1] (Homo sapiens, PBMC); under 10 nM against PDE4D2; under 10 nM at PDE4B2. In series [1] (setting [4]), the Emax came out at 80%.

Consider `CNC(=O)OCC(C)(C)Nc1nc(N2CC=C(c3ncc(Cl)cn3)CC2)nc2c1[S@+]([O-])CC2` [Compound 104], for which the IC50 in series [1] (Homo sapiens, PBMC) is 10 to 50 nM; on PDE4D2 it was 10 to 50 nM; at PDE4B2, 10 to 50 nM. Further, in series [1] (setting [4]), the Emax stood at 78.8%.

`C#Cc1ccc(C2=CCN(c3nc4c(c(NC(C)(C)COC(N)=O)n3)[S@+]([O-])CC4)CC2)nc1` [Compound 105]: the IC50 in series [1] (Homo sapiens, PBMC) is under 10 nM; against PDE4D2, under 10 nM; against PDE4B2, under 10 nM. The Emax in series [1] (setting [4]) is 84%.

As for `CC(C)(COC(N)=O)Nc1nc(N2CC=C(c3ncc(N4CC[Si](C)(C)CC4)cn3)CC2)nc2c1[S@+]([O-])CC2` [Compound 106], the “Max inhibition (%)” value in series [1] (hPBMC, 100 ng/mL LPS) is listed as 98.36%. The IC50 (in series [1] (setting [9]); at PDE4D2; on PDE4B2 (read-out: PDE4B2 IC50)) was 10 to 50 nM throughout.

Consider `CN1C[C@@H](Nc2nc(N3C[C@H]4CN(c5ccc6c(c5)CC6)C[C@H]4C3)nc3c2[S@@+]([O-])CC3)CCC1=O` [Compound 109-4], for which the “Max inhibition (%)” value in series [1] (hPBMC, 100 ng/mL LPS) is listed as 85.74%. In addition, the IC50 (in series [1] (setting [9]); at PDE4D2; at PDE4B2 (read-out: PDE4B2 IC50)) was under 10 nM in each case.

On to `CC#Cc1cnc2c(c1)OC[C@@H]1CN(c3nc4c(c(NC(C)(C)COC(N)=O)n3)[S@+]([O-])CC4)CCN21` [Compound 112-1], for which, in series [1] (hPBMC, 100 ng/mL LPS), the “Max inhibition (%)” value was found to be 83.76%. For the same molecule, the results for the IC50 (in series [1] (setting [9]); against PDE4D2; at PDE4B2 (read-out: PDE4B2 IC50)) were 10 to 50 nM, 10 to 50 nM and under 10 nM, respectively.

`COC(=O)NCC(C)(C)Nc1nc(N2CC=C(c3ncc(C4CC4)cn3)CC2)nc2c1[S@+]([O-])CC2` [Compound 117]: the IC50 in series [1] (Homo sapiens, PBMC) lay in the range of 10 to 50 nM; against PDE4D2, 10 to 50 nM; against PDE4B2 it was 10 to 50 nM. The Emax in series [1] (setting [4]) is 86%.

Turning to `COC(=O)NCC(C)(C)Nc1nc(N2C[C@@H]3CC(c4ncc5c(n4)CC5)=C[C@@H]3C2)nc2c1[S@+]([O-])CC2` [Compound 139-1], the “Max inhibition (%)” value in series [1] (hPBMC, 100 ng/mL LPS) is on record as 92.69%. For the same molecule, the IC50 (in series [1] (setting [9]); on PDE4D2; at PDE4B2 (read-out: PDE4B2 IC50)) was under 10 nM each time.

Take `CC#Cc1cnc2c(c1)OC[C@@H]1CN(c3nc4c(c(NC(C)(C)CNC(=O)OC)n3)[S@+]([O-])CC4)CCN21` [Compound 140-1]: the “Max inhibition (%)” value in series [1] (hPBMC, 100 ng/mL LPS) stood at 93.38%. For the same molecule, the IC50 is under 10 nM in series [1] (setting [9]), 10 to 50 nM on PDE4D2 and 10 to 50 nM at PDE4B2 (read-out: PDE4B2 IC50).

With `CC#Cc1cnc2c(c1)OC[C@H]1CN(c3nc4c(c(NC(C)(C)CNC(=O)OC)n3)[S@+]([O-])CC4)CCN21` [Compound 140-2], the “Max inhibition (%)” value in series [1] (hPBMC, 100 ng/mL LPS) came to 89.58%. Further, the concentration for half-maximal inhibition (IC50) in series [1] (setting [9]) is 10 to 50 nM; against PDE4D2, 50 to 100 nM; at PDE4B2 (read-out: PDE4B2 IC50) it was 10 to 50 nM.
